Counter-ions that a name gives are not always drawn. Like-named read-outs stand apart in the source and are kept apart here.
What was measured:
[1] = tested on: Ca9-22 squamous cell carcinoma cells; experiment: MTT cytotoxicity against Ca9-22 squamous cell carcinoma; assay type: cell-based, human; conditions: for CC50: Homo sapiens, Ca9-22, 48 h, MTT, read-out: Ca9-22 CC50; for Ca9-22 SI: average CC50 HGF/HPLF/HPC divided by CC50 Ca9-22
Method: (§1) The method for evaluating 2a–f and 3a–e against human oral squamous cell carcinoma (OSCC) cell lines (Ca9-22, HSC-2, HSC-3, HSC-4) and human non-malignant oral cells [human gingival fibroblast (HGF), human periodontal ligament fibroblast (HPLF), and human pulp cell (HPC)] have been reported previously, except the length of time of this bioassay was extended from 24 h to 48 h. In brief, different quantities of the compounds were incubated with the cells in Dulbecco’s modified eagle medium (DMEM), which was supplemented with 10% FBS and antibiotics. The cell viability was determined by the 3-(4,5-dimethylthiazol-2-yl)-2,5-diphenyl-2H-tetrazolium bromide (MTT) method as summarized previously (Figure 4).

HL-60 cells = experiment: Differential DNA staining (DNS) cytotoxicity assay, HL-60 cells; assay type: cell-based; conditions: Homo sapiens
Method: (§2) The method used for generating the data of human acute lymphocytic leukemia (CEM) and human acute promyelocytic leukemia (HL-60) cells in Table 4 has been described previously. In brief, the cells were cultured in media supplemented with 10% FBS and antibiotics. […] The CC50 values of the compounds listed in Table 4 were obtained by linear interpolation equations [28, 29].

CEM cells [2] = experiment: Annexin V-FITC apoptosis assay in CEM cells; assay type: cell-based, human; conditions: CC50 and twice the CC50 concentrations, 24 h
Method: In order to discover if representative compounds induce apoptosis, the annexin V-FITC assay was used. In brief, CEM cells were treated with various compounds for 24 h. The cells were collected and stained with propidium iodide and annexin V-FITC.

HT29 colon cancer cells = experiment: Cytotoxicity against HT29 colon cancer cells; assay type: cell-based, human; conditions: for HT29 SI (selectivity index): IC50 CRL1790 / IC50 HT29; for IC50: Homo sapiens, HT-29, 48 h, 48 h
Method: (§3) The culture medium was supplemented with 10% heat-inactivated fetal bovine serum (FBS) and 1% penicillin–streptomycin antibiotics. The time of the bioassays was 48 h. The determinations were undertaken in triplicate on three different occasions.

[3] = tested on: HSC-3 squamous cell carcinoma cells; experiment: MTT cytotoxicity against HSC-3 squamous cell carcinoma; assay type: cell-based, human; conditions: for CC50: Homo sapiens, HSC-3, 48 h, MTT, read-out: HSC-3 CC50; for HSC-3 SI: average CC50 HGF/HPLF/HPC divided by CC50 HSC-3
Method: as §1

[4] = MTT cytotoxicity against human periodontal ligament fibroblast (HPLF); assay type: cell-based; conditions: human, human periodontal ligament fibroblasts (HPLF), non-malignant oral cells
Method: as §1

[5] = tested on: HCT116 and HT29 colon cancer cells; experiment: Average over HCT116 and HT29 colon cancer cells; assay type: cell-based, human; conditions: for IC50: Homo sapiens, average of HCT116 and HT29, unit printed only for the single cell-line columns; for Average SI: average of SI for HCT116 and HT29; for PSE (potency-selectivity expression): reciprocal of average IC50 x average SI x 100, colon cells
Method: as §3

[6] = tested on: HCT116 colon cancer cells; experiment: Cytotoxicity against HCT116 colon cancer cells; assay type: cell-based, human; conditions: for HCT116 SI (selectivity index): IC50 CRL1790 / IC50 HCT116; for IC50: Homo sapiens, HCT-116, 48 h, 48 h
Method: as §3

[7] = tested on: CRL1790 non-malignant colon cells; experiment: Cytotoxicity against CRL1790 non-malignant colon cells; assay type: cell-based; conditions: Homo sapiens, 48 h
Method: as §3

CEM cells [8] = experiment: Differential DNA staining (DNS) cytotoxicity assay, CEM cells; assay type: cell-based; conditions: Homo sapiens, CCRF-CEM
Method: as §2

CEM cells [9] = experiment: Mitochondrial membrane potential in CEM cells (JC-1, flow cytometry); assay type: cell-based, human; conditions: 7 h
Method: The effect on the mitochondrial membrane potential in CEM cells was undertaken using a published method. In brief, the cells were incubated with different compounds for 7 h. The cells were then stained with the JC-1 dye, and the samples were examined by flow cytometry. The results are portrayed in Figure 6C.

[10] = MTT cytotoxicity against human pulp cell (HPC); assay type: cell-based; conditions: human, human pulp cells (HPC), non-malignant oral cells
Method: as §1

[11] = tested on: HSC-4 squamous cell carcinoma cells; experiment: MTT cytotoxicity against HSC-4 squamous cell carcinoma; assay type: cell-based, human; conditions: for CC50: Homo sapiens, HSC-4, 48 h, MTT, read-out: HSC-4 CC50; for HSC-4 SI: average CC50 HGF/HPLF/HPC divided by CC50 HSC-4
Method: as §1

[12] = Average over HGF, HPLF and HPC non-malignant oral cells; assay type: cell-based, human; conditions: human, HPLF and HPC non-malignant oral cells (average), average of HGF
Method: as §1

[13] = tested on: HSC-2 squamous cell carcinoma cells; experiment: MTT cytotoxicity against HSC-2 squamous cell carcinoma; assay type: cell-based, human; conditions: for CC50: Homo sapiens, HSC-2, 48 h, MTT, read-out: HSC-2 CC50; for HSC-2 SI: average CC50 HGF/HPLF/HPC divided by CC50 HSC-2
Method: as §1

[14] = MTT cytotoxicity against human gingival fibroblast (HGF); assay type: cell-based; conditions: human, human gingival fibroblasts (HGF), non-malignant oral cells
Method: as §1

[15] = tested on: Ca9-22, HSC-2, HSC-3, and HSC-4 squamous cell carcinoma cell lines; experiment: Average over Ca9-22, HSC-2, HSC-3 and HSC-4 OSCC cell lines; assay type: cell-based, human; conditions: for CC50: average of four OSCC cell lines, read-out: Average CC50; for Average SI: average of SI for four OSCC cell lines
Method: as §1

CEM cells [16] = experiment: ROS production in CEM cells (carboxy-H2DCFDA, flow cytometry); assay type: cell-based, human; conditions: CC50 and twice the CC50 concentrations
Method: (§4) Apoptosis induction in Ca9-22 cells was evaluated by cell cycle analysis and Western blot analysis as described previously (Figure 5). Briefly, for the cell cycle analysis, cells were treated for 24 h with the test samples. Cells were then fixed, digested with RNase A, stained with propidium iodide, filtered through Falcon® cell trainers (Corning Inc., Corning, NY, USA), and then subjected to cell sorting. For the Western blot, cell lysates (equivalent to 5 µg protein) were applied to SDS-polyacrylamide gel electrophoresis. A literature method was used to determine whether representative compounds led to increases in the production of ROS [29]. In brief, CEM cells were treated with the compounds overnight, then with 6-carboxy-2′,7′-dichlorodihydrofluorescein diacetate (carboxy-H2DCFDA) and the samples were processed using flow cytometry.

Ca9-22 cells = experiment: Western blot for caspase 3 activation in Ca9-22 cells; assay type: cell-based, human; conditions: 3 μM, 24 h
Method: as §4

[17] = HL-60, 24 h, read-out: CC50 HL-60 Cells 24 h
[18] = HL-60, 48 h, read-out: CC50 HL-60 Cells 48 h
[19] = 24 h, read-out: CC50 CEM Cells 24 h
[20] = 48 h, read-out: CC50 CEM Cells 48 h

CN1CCN(Cc2cc(/C=C3\CNC/C(=C\c4ccc([N+](=O)[O-])cc4)C3=O)ccc2O)CC1 [Compound 3e]
CC50 [1]: 330 nM | Ca9-22 SI [1]: 17.3 | CC50 (HL-60 cells; [17]): 4110 nM | CC50 (HL-60 cells; [18]): 6630 ± 680 nM | apoptotic cells (CEM cells [2]): approximately 30% | HT29 SI (selectivity index) (HT29 colon cancer cells): 49.4 | CC50 [3]: 470 nM | HSC-3 SI [3]: 12.1 | CC50 at 48 h [4]: 2700 nM | IC50 [5]: 330 nM | Average SI [5]: 48.0 | PSE (potency-selectivity expression) [5]: 14,546 | HCT116 SI (selectivity index) [6]: 46.5 | IC50 [7]: 15800 ± 270 nM | CC50 (CEM cells [8]; [19]): 760 ± 150 nM | CC50 (CEM cells [8]; [20]): 830 ± 30 nM | depolarization of the mitochondrial membrane potential (CEM cells [9]): induced | CC50 at 48 h [10]: 1900 nM | CC50 [11]: 600 nM | HSC-4 SI [11]: 9.50 | CC50 at 48 h [12]: 5700 nM | CC50 [13]: 580 nM | HSC-2 SI [13]: 9.83 | CC50 at 48 h [14]: 12500 nM | CC50 ([15]; Homo sapiens): < 1000 nM | CC50 [15]: 500 nM | ROS generation (CEM cells [16]): generate ROS | caspase 3 activation (cleavage of PARP and procaspase) (Ca9-22 cells): induced

CN1CCN(Cc2cc(/C=C3\CNC/C(=C\c4ccccc4)C3=O)ccc2O)CC1 [Compound 3a]
CC50 [1]: 430 nM | Ca9-22 SI [1]: 13.6 | CC50 (HL-60 cells; [17]): 8270 ± 400 nM | CC50 (HL-60 cells; [18]): 1670 ± 540 nM | apoptotic cells (CEM cells [2]): approximately 30% | CC50 [3]: 490 nM | HSC-3 SI [3]: 11.9 | CC50 at 48 h [4]: 4700 nM | IC50 [5]: 370 nM | Average SI [5]: 60.1 | PSE (potency-selectivity expression) [5]: 16,243 | IC50 [7]: 21700 ± 250 nM | CC50 (CEM cells [8]; [19]): 3060 ± 80 nM | CC50 (CEM cells [8]; [20]): 3320 ± 300 nM | depolarization of the mitochondrial membrane potential (CEM cells [9]): induced | CC50 at 48 h [10]: 2600 nM | CC50 [11]: 710 nM | HSC-4 SI [11]: 8.21 | CC50 at 48 h [12]: 5830 nM | CC50 [13]: 670 nM | HSC-2 SI [13]: 8.70 | CC50 at 48 h [14]: 10200 nM | CC50 ([15]; Homo sapiens): < 1000 nM | CC50 [15]: 580 nM | PSE (potency-selectivity expression) ([15]; reciprocal of average CC50 (OSCC) x average SI x 100): > 1000 | ROS generation (CEM cells [16]): generate ROS | caspase 3 activation (cleavage of PARP and procaspase) (Ca9-22 cells): induced

COc1ccc(/C=C2\CNC/C(=C\c3ccc(O)c(CN4CCCC4)c3)C2=O)cc1OC [Compound 2c, 3-[3-(1-Pyrrolidinylmethyl)-4-hydroxybenzylidene]-5-(3,4-dimethoxybenzylidene)-4-piperidone dihydrochloride]
CC50 [1]: 8200 nM | Ca9-22 SI [1]: 6.54 | CC50 (HL-60 cells; [17]): > 10000 nM | CC50 (HL-60 cells; [18]): > 10000 nM | IC50 (HT29 colon cancer cells): 1570 ± 540 nM | HT29 SI (selectivity index) (HT29 colon cancer cells): 16.8 | CC50 [3]: 11700 nM | HSC-3 SI [3]: 4.58 | CC50 at 48 h [4]: 48900 nM | IC50 [5]: 2510 nM | Average SI [5]: 12.2 | PSE (potency-selectivity expression) [5]: 486 | IC50 [6]: 3440 ± 420 nM | HCT116 SI (selectivity index) [6]: 7.67 | IC50 [7]: 26400 ± 280 nM | CC50 (CEM cells [8]; [19]): > 10000 nM | CC50 (CEM cells [8]; [20]): 7920 ± 980 nM | CC50 at 48 h [10]: 43300 nM | CC50 [11]: 14100 nM | HSC-4 SI [11]: 3.80 | CC50 at 48 h [12]: 53600 nM | CC50 [13]: 14000 nM | HSC-2 SI [13]: 3.83 | CC50 at 48 h [14]: 68600 nM | CC50 ([15]; Homo sapiens): 12000 nM | Average SI [15]: 4.69

COc1ccc(C=C2CNCC(=Cc3ccc(O)c(CN(C)C)c3)C2=O)cc1OC.Cl.Cl [Compound 2a, 3-(3,4-Dimethoxybenzylidene)-5-(3-((dimethylamino)methyl)-4-hydroxybenzylidene)-4-piperidone dihydrochloride]
CC50 [1]: 680 nM | Ca9-22 SI [1]: 11.4 | CC50 (HL-60 cells; [17]): 1990 ± 920 nM | CC50 (HL-60 cells; [18]): 2210 ± 370 nM | apoptotic cells (CEM cells [2]): approximately 30% | IC50 (HT29 colon cancer cells): 1800 ± 1240 nM | HT29 SI (selectivity index) (HT29 colon cancer cells): 9.72 | CC50 [3]: 1060 nM | HSC-3 SI [3]: 7.29 | CC50 at 48 h [4]: 5000 nM | IC50 [5]: 1770 nM | Average SI [5]: 9.91 | PSE (potency-selectivity expression) [5]: 560 | IC50 [6]: 1730 ± 480 nM | HCT116 SI (selectivity index) [6]: 10.1 | IC50 [7]: 17500 ± 580 nM | CC50 (CEM cells [8]; [19]): 1640 ± 680 nM | CC50 (CEM cells [8]; [20]): 820 ± 20 nM | depolarization of the mitochondrial membrane potential (CEM cells [9]): induced | CC50 at 48 h [10]: 2300 nM | CC50 [11]: 1390 nM | HSC-4 SI [11]: 5.56 | CC50 at 48 h [12]: 7730 nM | CC50 [13]: 1200 nM | HSC-2 SI [13]: 6.44 | CC50 at 48 h [14]: 15900 nM | CC50 ([15]; Homo sapiens): 1080 nM | Average SI [15]: 7.67 | ROS generation (CEM cells [16]): generate ROS | caspase 3 activation (cleavage of PARP and procaspase) (Ca9-22 cells): induced

Source: paper PMC9572513, “Novel Unsymmetric 3,5-Bis(benzylidene)-4-piperidones That Display Tumor-Selective Toxicity” (Molecules, 2022)
